Reference: US11396518B2, “Solid forms of thiophene derivatives” (TIANJIN HEMAY PHARMACEUTICAL CO., LTD., priority 2018, dated 2022)

What was measured:
Assay type in all cases: physicochemical
[1] = Dissolution rate in water; conditions: about 25 mg in 900 mL of water, 37° C., rotating speed 100/minute
Procedure: An amorphous solid form of (S)—N-[5-[1-(3-ethoxy-4-methoxyphenyl)-2-(methylsulfonyl)ethyl]-4,6-dioxo-5,6-dihydro-4H-thieno[3,4-c]pyrrole-1-yl]acetamide prepared according to the process in Example 1 was tested.
About 25 mg of the amorphous solid form of (S)—N-[5-[1-(3-ethoxy-4-methoxyphenyl)-2-(methylsulfonyl)ethyl]-4,6-dioxo-5,6-dihydro-4H-thieno[3,4-c]pyrrole-1-yl]acetamide was added to 900 mL of water. The mixture was stirred at a rotating speed of 100/minute at 37° C. for 90 minutes. The supernatant was filtered and diluted. The concentration of the diluted solution (a mg/mL) was determined by ultraviolet spectrophotometer. The dissolution rate was calculated according to the formula 900a/25×100%.

[2] = Pressure stability (DSC after tablet pressing); conditions: tablet press machine with single punch, tablet diameter 6 mm, hardness 25-30 N
Procedure: An amorphous solid form of (S)—N-[5-[1-(3-ethoxy-4-methoxyphenyl)-2-(methylsulfonyl)ethyl]-4,6-dioxo-5,6-dihydro-4H-thieno[3,4-c]pyrrole-1-yl]acetamide was pressed by tablet press machine with single punch. The diameter of the tablet was 6 mm and the hardness was 25-30 N. DSC test was carried out on pressed powder.

[3] = Hygroscopicity (XRPD after moisture absorption at RH=80%)
Procedure: Hygroscopicity of an amorphous solid form of (S)—N-[5-[1-(3-ethoxy-4-methoxyphenyl)-2-(methylsulfonyl)ethyl]-4,6-dioxo-5,6-dihydro-4H-thieno[3,4-c]pyrrole-1-yl]acetamide was studied. The amorphous solid form of (S)—N-[5-[1-(3-ethoxy-4-methoxyphenyl)-2-(methylsulfonyl)ethyl]-4,6-dioxo-5,6-dihydro-4H-thieno[3,4-c]pyrrole-1-yl]acetamide was placed in a drier containing saturated ammonium chloride solution (RH=80%) until weight was balanced. The crystal form was tested with XRPD.
An amorphous solid form of (S)—N-[5-[1-(3-ethoxy-4-methoxyphenyl)-2-(methylsulfonyl)ethyl]-4,6-dioxo-5,6-dihydro-4H-thieno[3,4-c]pyrrole-1-yl]acetamide prepared according to the process of Example 1 was tested.

[4] = Grinding stability (XRPD after grinding)
Procedure: An amorphous solid form of (S)—N-[5-[1-(3-ethoxy-4-methoxyphenyl)-2-(methylsulfonyl)ethyl]-4,6-dioxo-5,6-dihydro-4H-thieno[3,4-c]pyrrole-1-yl]acetamide prepared according to the process of Example 1 was ground in a glass mortar for 5 minutes. The ground samples were tested with XRPD.

- Dissolution Rate (%) ([1]; Time 0 min): 0%
- Dissolution Rate (%) ([1]; Time 15 min): 38.3%
- Dissolution Rate (%) ([1]; Time 30 min): 54.9%
- Dissolution Rate (%) ([1]; Time 45 min): 72.8%
- Dissolution Rate (%) ([1]; Time 60 min): 63.7%
- DSC curve of pressed powder compared with FIG. 2 [2]: substantially identical
- Pressure stability (conclusion in words) [2]: good stability
- Moisture absorption stability (conclusion in words) ([3]; RH=80% until weight was balanced): good moisture absorption stability
- Crystal Form after Absorbing Moisture ([3]; drier with saturated ammonium chloride solution (RH=80%) until weight was balanced): Amorphous
- Crystal Form after Grinding ([4]; Grinding in a glass mortar for 5 minutes): Amorphous
- Grinding stability (conclusion in words) ([4]; ground in a glass mortar for 5 minutes): good grinding stability
Structure (SMILES): CCOc1cc([C@@H](CS(C)(=O)=O)N2C(=O)c3csc(NC(C)=O)c3C2=O)ccc1OC [amorphous solid form, (S)—N-[5-[1-(3-ethoxy-4-methoxyphenyl)-2-(methylsulfonyl)ethyl]-4,6-dioxo-5,6-dihydro-4H-thieno[3,4-c]pyrrole-1-yl]acetamide]
